In ChEMBL document CHEMBL1140393, “Neamine dimers targeting the HIV-1 TAR RNA” (Bioorg Med Chem Lett, 2005):

Columns and labels:
Set-up in all cases: species or system Homo sapiens
[1] = Effect towards transactivation responsive RNA-binding protein at pH 7.5, (10 mM Tris-HCl, 150 mM KCl)by using fluorimetric competition assay
[2] = Effect against transactivation responsive RNA-binding protein at pH 7.4 (50 mM Tris-HCl […]) in fluorimetric competition assay
[3] = Effect against trans-activation responsive RNA-binding protein at pH 7.4 (50 mM Tris-HCl and 20 mM KCl) in fluorimetric competition assay

IC50 [1] | IC50 [2] | SMILES | IC50 [3]
1000 nM | 150 nM | CN(CC(=O)NCCCCCCO[C@@H]1[C@H](O)[C@H](N)C[C@@H](N)[C@H]1O[C@H]1O[C@@H](CN)[C@@H](O)[C@H](O)[C@@H]1N)CC(=O)NCCCCCCO[C@@H]1[C@H](O)[C@H](N)C[C@@H](N)[C@H]1O[C@H]1O[C@@H](CN)[C@@H](O)[C@H](O)[C@@H]1N | –
50 nM | 330 nM | CN(CC(=O)NCCCCCCO[C@H]1[C@H](O)[C@H](N)[C@@H](O[C@H]2[C@H](O)[C@H](O)[C@H](N)C[C@H]2N)O[C@H]1CN)CC(=O)NCCCCCCO[C@H]1[C@H](O)[C@H](N)[C@@H](O[C@H]2[C@H](O)[C@H](O)[C@H](N)C[C@H]2N)O[C@H]1CN | –
480 nM | 150 nM | NCC1OC(OC2C(N)CC(N)C(O)C2O)C(N)C(O)C1OCCCCCCNC(=O)CCC(=O)NCCCCCCOC1C(CN)OC(OC2C(N)CC(N)C(O)C2O)C(N)C1O (configuration not stated) | –
900 nM | 400 nM | NCC1OC(OC2C(N)CC(N)C(O)C2OCCCCCCNC(=O)CCC(=O)NCCCCCCOC2C(O)C(N)CC(N)C2OC2OC(CN)C(O)C(O)C2N)C(N)C(O)C1O (configuration not stated) | –
35000 nM | 7000 nM | NC[C@@H]1O[C@H](O[C@H]2[C@@H](O)[C@H](O[C@@H]3[C@@H](O)[C@H](N)C[C@H](N)[C@H]3O[C@H]3O[C@H](CN)[C@@H](O)[C@H](O)[C@H]3N)O[C@@H]2CO)[C@H](N)[C@@H](O)[C@@H]1O [FRAMYCETIN] | –

SMILES | IC50 [1] | IC50 [2] | IC50 [3]
NC[C@H]1O[C@H](O[C@H]2[C@H](O)[C@@H](O)[C@H](N)C[C@@H]2N)[C@H](N)[C@@H](O)[C@@H]1O [NEAMINE] | 40000 nM | – | 10000 nM
